From patent US7049314B2, “Cyclopentyl indole derivatives” (Bristol-Myers Squibb Company, priority 2002, dated 2006) come the findings set out here.

For orientation: Ki means the dissociation constant of the complex between target and ligand, obtained from inhibition or displacement.

Each structure is given as a SMILES string. Read-outs that look alike come from different tables or passages of the source. Some results are limits rather than exact numbers.

Experiment [1] addresses T1, human norepinephrine transporters (Homo sapiens, UniProt P23975).
T1 construct: host or cells: MDCK cells (also 'HEK-hNET cells'), membrane homogenates
In words: Norepinephrine Transporter Binding Assay ([3H]-nisoxetine displacement, hNET cell membranes). The note with it: 2.7 nM [3H]-nisoxetine, 1 hr at 4° C., read-out: NE Reuptake (binding Ki). Here is the method: MDCK cells that stably express human norepinephrine transporters (HEK-hNET cells) were supplied by Receptor Biology, Inc. Pellets were resuspended by homogenization in buffer consisting of 50 mM Tris (pH 7.4 at 25° C.), 120 mM NaCl and 5 mM KCl. Membrane homogenates (200 μl/well, 8 ug protein) were incubated with 2.7 nM [^3H]-nisoxetine (specific activity=80 Ci/mMol) and increasing concentrations of test compounds for 1 hr at 4° C. in a total volume of 250 μl. The assay buffer consisted of 50 mM Tris (pH 7.4 at 25° C.), 120 mM NaCl and 5 mM KCl (pH 7.4 with conc. HCl). Plates were incubated for 1 hr at 4° C., then filtered through 0.5% PEI treated Whatman GF/B filters using a Brandel cell harvester. Filters were washed three times with 3 mL of ice-cold tris wash buffer. Non-specific binding was defined with 10 μM desipramine. Amount of radioligand bound in the presence and absence of competitor was analyzed by plotting (−)log drug concentration versus the amount of radioligand specifically bound. The midpoint of the displacement curve (IC50, nM), signifies the potency. Ki values were calculated using the method of Cheng and Prusoff (1973).

In experiment [2] the target is T2, human serotonin transporters (Homo sapiens, UniProt P31645).
T2 construct: expressed in transfected cells
Kind of experiment: Serotonin Transporter Binding Assay ([3H]-citalopram displacement, HEK-hSERT cell membranes). The method, then: HEK-293 cells that stably express human serotonin transporters (HEK-hSERT cells) were grown at 37° C. in 5% CO2 as a monolayer in medium consisting of EMEM supplemented with 10% fetal bovine serum and G418 sulfate (500 μg/mL). To prepare membranes for radioligand binding experiments, cells were rinsed twice with phosphate-buffered saline (138 mM NaCl, 4.1 mM KCl, 5.1 mM Na2PO4, 1.5 mM […], 11.1 mM glucose, pH 7.4). Cells were transferred from plates to polypropylene tubes (16×100 mm), centrifuged at 1,200×g for 5 min and were frozen at −80° C. until assay. Following centrifugation, pellets were resuspended by homogenization in buffer consisting of 50 mM Tris (pH 7.7 at 25° C.), 120 mM NaCl and 5 mM KCl and then centrifuged at 32,000×g for 10 min. Following centrifugation, supernatants were discarded and pellets were resuspended in buffer consisting of 50 mM Tris (pH 7.4 at 25° C.), 150 mM NaCl and 5 mM KCl. Membrane homogenates (200 μl/plate) were incubated with 1 nM [^3H]-citalopram (specific activity=85 Ci/mMol) and increasing concentrations of test compounds for 1 hr at 25° C. in a total volume of 250 μl. The assay buffer consisted of 50 mM Tris (pH 7.4 at 25° C.), 120 mM NaCl and 5 mM KCl (pH 7.4 with conc. HCl). Plates were incubated for 1 hr at 25° C., then filtered through 0.5% PEI treated Whatman GF/B filters using a Brandel cell harvester. Filters were washed three times with 3 mL of ice-cold tris wash buffer. Non-specific binding was defined with 10 μM fluoxetine. Amount of radioligand bound in the presence and absence of competitor was analyzed by plotting (−)log drug concentration versus the amount of radioligand specifically bound. The midpoint of the displacement curve (IC50, nM), signifies the potency. Ki values were calculated using the method of Cheng and Prusoff (1973).

Where [3] appears, read: HEK-hSERT membranes, 1 nM [3H]-citalopram, 1 hr at 25° C., read-out: SERT (binding Ki).

T2 sequence (P31645 whole entry): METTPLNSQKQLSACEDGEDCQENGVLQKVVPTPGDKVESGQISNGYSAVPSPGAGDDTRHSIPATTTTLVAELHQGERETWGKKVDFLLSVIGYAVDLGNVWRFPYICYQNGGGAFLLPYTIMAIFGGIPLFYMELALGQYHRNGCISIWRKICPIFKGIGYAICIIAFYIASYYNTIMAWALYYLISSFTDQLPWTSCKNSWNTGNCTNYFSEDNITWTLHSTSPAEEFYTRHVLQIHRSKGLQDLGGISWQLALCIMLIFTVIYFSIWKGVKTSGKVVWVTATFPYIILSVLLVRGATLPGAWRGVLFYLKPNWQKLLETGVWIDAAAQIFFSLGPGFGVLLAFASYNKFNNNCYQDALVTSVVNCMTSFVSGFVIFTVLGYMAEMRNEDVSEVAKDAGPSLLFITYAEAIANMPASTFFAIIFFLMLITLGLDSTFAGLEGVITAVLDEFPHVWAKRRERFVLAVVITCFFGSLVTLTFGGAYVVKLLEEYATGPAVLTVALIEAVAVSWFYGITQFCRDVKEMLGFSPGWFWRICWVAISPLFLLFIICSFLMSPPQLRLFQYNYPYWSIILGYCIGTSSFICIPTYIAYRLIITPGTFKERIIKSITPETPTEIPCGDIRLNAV
T1 sequence (P23975 whole entry): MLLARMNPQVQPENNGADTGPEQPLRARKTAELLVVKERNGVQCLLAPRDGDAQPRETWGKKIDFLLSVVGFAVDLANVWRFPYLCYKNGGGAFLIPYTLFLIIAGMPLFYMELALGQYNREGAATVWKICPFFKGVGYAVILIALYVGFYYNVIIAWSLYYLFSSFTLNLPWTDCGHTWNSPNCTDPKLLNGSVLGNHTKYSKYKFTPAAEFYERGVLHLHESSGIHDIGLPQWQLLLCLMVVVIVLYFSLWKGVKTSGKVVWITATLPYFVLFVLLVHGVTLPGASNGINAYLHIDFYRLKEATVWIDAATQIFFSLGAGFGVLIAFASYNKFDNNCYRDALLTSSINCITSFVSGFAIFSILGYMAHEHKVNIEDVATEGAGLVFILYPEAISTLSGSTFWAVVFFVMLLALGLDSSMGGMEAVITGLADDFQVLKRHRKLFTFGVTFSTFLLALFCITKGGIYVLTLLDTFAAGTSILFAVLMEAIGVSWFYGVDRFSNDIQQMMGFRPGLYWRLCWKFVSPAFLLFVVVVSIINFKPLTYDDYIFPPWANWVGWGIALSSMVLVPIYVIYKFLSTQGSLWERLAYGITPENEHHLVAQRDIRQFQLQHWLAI

For the compound `CN(C)[C@@H]1CC[C@H](c2c[nH]c3ccc(F)cc23)C1` [Compound 53, (1R,3S)-3-(5-fluoro-1H-indol-3-yl)-cyclopentyl-dimethylamine], the inhibition constant Ki in experiment [1] is greater than 1000 nM; in experiment [2] (setting [3]), less than 1 nM.
For `Cn1cc(C2CCC(NCc3ccccc3)C2)c2cc(C#N)ccc21` (centres unmarked) [Compound 19, 3-(3-Benzylamino-cyclopentyl)-1-methyl-1H-indole-5-carbonitrile], the Ki was in the range of 100 to 1000 nM in experiment [1] and 1 to 10 nM in experiment [2] (setting [3]).
For `CCCNC1CCC(c2cn(C)c3ccc(C#N)cc23)C1` (centres unmarked) [Compound 29, 1-Methyl-3-(3-propylamino-cyclopentyl)-1H-indole-5-carbonitrile], the figures for the Ki in experiment [1] and in experiment [2] were greater than 1000 nM and less than 1 nM, respectively.
On the same counts, the results for `N#Cc1ccc2[nH]cc(C3CCC(N4CCCC4)C3)c2c1` (centres unmarked) [Compound 6, 3-(3-Pyrrolidin-1-yl-cyclopentyl)-1H-indole-5-carbonitrile] are greater than 1000 nM and 1 to 10 nM.
In the case of `CCn1cc(C2CCC(N(C)C)C2)c2cc(C#N)ccc21` (centres unmarked) [Compound 32, 3-(3-Dimethylamino-cyclopentyl)-1-ethyl-1H-indole-5-carbonitrile], the Ki in experiment [1] is greater than 1000 nM; in experiment [2] (setting [3]), less than 1 nM.
On to `CCN(CC)C1CCC(c2c[nH]c3ccc(F)cc23)C1` (centres unmarked) [Compound 35, Diethyl-[3-(5-fluoro-1H-indol-3-yl)-cyclopentyl]-amine], for which the values for the Ki in experiment [1] and in experiment [2] were greater than 1000 nM and 5 nM, respectively.
Consider `CN(C)C1CCC(c2c[nH]c3ccc(C#N)cc23)C1` (centres unmarked) [Compound 3, 3-(3-Dimethylamino-cyclopentyl)-1H-indole-5-carbonitrile], for which the Ki is greater than 1000 nM in experiment [1] and less than 1 nM in experiment [2] (setting [3]).
On the same counts, the results for `CN(C)[C@@H]1CC[C@@H](c2c[nH]c3ccc(C#N)cc23)C1` [Compound 51, (1R,3R)-3-(3-dimethylaminocyclopentyl)-1H-indole-5-carbonitrile] are greater than 1000 nM and less than 1 nM.
Regarding `N#Cc1ccc2[nH]cc(C3CCC(N4CCCCC4)C3)c2c1` (centres unmarked) [Compound 14, 3-(3-Piperidin-1-yl-cyclopentyl)-1H-indole-5-carbonitrile], the Ki was greater than 1000 nM in experiment [1] and less than 1 nM in experiment [2].
`CNC1CCC(c2cn(C)c3ccc(C#N)cc23)C1` (centres unmarked) [Compound 17, 1-Methyl-3-(3-methylamino-cyclopentyl)-1H-indole-5-carbonitrile]: the Ki was greater than 1000 nM in experiment [1] and 1 to 10 nM in experiment [2].
For the compound `CCn1cc([C@H]2CC[C@H](N(C)C)C2)c2cc(C#N)ccc21` [Compound 57, (1S,3S)-3-(3-Dimethylamino-cyclopentyl)-1-ethyl-1H-indole-5-carbonitrile], the Ki was greater than 1000 nM in experiment [1] and 1 to 10 nM in experiment [2] (setting [3]).
Regarding `CCn1cc([C@H]2CC[C@@H](N(C)C)C2)c2cc(C#N)ccc21` [Compound 56, (1S,3R)-3-(3-Dimethylamino-cyclopentyl)-1-ethyl-1H-indole-5-carbonitrile], the values for the Ki in experiment [1] and in experiment [2] (setting [3]) were greater than 1000 nM and less than 1 nM, respectively.
As to `CCn1cc(C2CCC(N(C)Cc3ccccc3)C2)c2cc(C#N)ccc21` (centres unmarked) [Compound 31, 3-[3-(Benzyl-methyl-amino)-cyclopentyl]-1-ethyl-1H-indole-5-carbonitrile], the results for the Ki in experiment [1] and in experiment [2] (setting [3]) were greater than 1000 nM and 1 to 10 nM, respectively.
Consider `Cn1cc(C2CCC(N3CCCCC3)C2)c2cc(C#N)ccc21` (centres unmarked) [Compound 25, 1-Methyl-3-(3-piperidin-1-yl-cyclopentyl)-1H-indole-5-carbonitrile], for which the results for the Ki in experiment [1] and in experiment [2] (setting [3]) were greater than 1000 nM and less than 1 nM, respectively.
Turning to `CCN(CC)C1CCC(c2cn(C)c3ccc(C#N)cc23)C1` (centres unmarked) [Compound 23, 3-(3-Diethylamino-cyclopentyl)-1-methyl-1H-indole-5-carbonitrile], the Ki in experiment [1] is greater than 1000 nM; in experiment [2], less than 1 nM.
`CCCN(CCC)C1CCC(c2cn(C)c3ccc(C#N)cc23)C1` (centres unmarked) [Compound 30, 3-(3-Dipropylamino-cyclopentyl)-1-methyl-1H-indole-5-carbonitrile]: the results for the Ki in experiment [1] and in experiment [2] (setting [3]) were greater than 1000 nM and less than 1 nM, respectively.
On the same counts, the results for `CCn1cc([C@@H]2CC[C@@H](N(C)C)C2)c2cc(C#N)ccc21` [Compound 59, (1R,3R)-3-(3-Dimethylamino-cyclopentyl)-1-ethyl-1H-indole-5-carbonitrile] are greater than 1000 nM and 1 to 10 nM.
Turning to `CN(C)C1CCC(c2cn(C)c3ccc(C#N)cc23)C1` (centres unmarked) [Compound 21, 3-(3-Dimethylamino-cyclopentyl)-1-methyl-1H-indole-5-carbonitrile], the Ki in experiment [1] was greater than 1000 nM; in experiment [2], 1 to 10 nM.
`N#Cc1ccc2[nH]cc(C3CCC(NCc4ccccc4)C3)c2c1` (centres unmarked) [Compound 13, 3-(3-Benzylamino-cyclopentyl)-1H-indole-5-carbonitrile]: the Ki in experiment [1] lay within 100 to 1000 nM; in experiment [2] (setting [3]), 1 to 10 nM.
Consider `N#Cc1ccc2[nH]cc(C3CCC(N4CCOCC4)C3)c2c1` (centres unmarked) [Compound 11, 3-(3-Morpholin-4-yl-cyclopentyl)-1H-indole-5-carbonitrile], for which the Ki in experiment [1] was greater than 1000 nM; in experiment [2] it was less than 1 nM.
For the compound `CCCN(CCC)C1CCC(c2c[nH]c3ccc(C#N)cc23)C1` (centres unmarked) [Compound 15, 3-(3-Dipropylamino-cyclopentyl)-1H-indole-5-carbonitrile], the Ki in experiment [1] is greater than 1000 nM; in experiment [2] (setting [3]), 1 to 10 nM.
On the same counts, the results for `CN(CCc1ccccc1)C1CCC(c2cn(C)c3ccc(C#N)cc23)C1` (centres unmarked) [Compound 28, 1-Methyl-3-[3-(methyl-phenethyl-amino)-cyclopentyl]-1H-indole-5-carbonitrile] are 100 to 1000 nM and 1 to 10 nM.
`Cn1cc(C2CCC(N3CCCC3)C2)c2cc(C#N)ccc21` (centres unmarked) [Compound 24, 1-Methyl-3-(3-pyrrolidin-1-yl-cyclopentyl)-1H-indole-5-carbonitrile]: the Ki in experiment [1] was greater than 1000 nM; in experiment [2] it was 1 to 10 nM.
Consider `CN(Cc1ccccc1)C1CCC(c2c[nH]c3ccc(C#N)cc23)C1` (centres unmarked) [Compound 12, 3-[3-(Benzyl-methyl-amino)-cyclopentyl]-1H-indole-5-carbonitrile], for which the Ki in experiment [1] lay within 100 to 1000 nM; in experiment [2] (setting [3]), 1 to 10 nM.
With `Cn1cc(C2CCC(NCCc3ccccc3)C2)c2cc(C#N)ccc21` (centres unmarked) [Compound 20, 1-Methyl-3-(3-phenethylamino-cyclopentyl)-1H-indole-5-carbonitrile], the Ki in experiment [1] is 100 to 1000 nM; in experiment [2] (setting [3]), 1 to 10 nM.
On the same counts, the results for `CCn1cc([C@@H]2CC[C@H](N(C)C)C2)c2cc(C#N)ccc21` [Compound 58, (1R,3S)-3-(3-Dimethylamino-cyclopentyl)-1-ethyl-1H-indole-5-carbonitrile] are greater than 1000 nM and less than 1 nM.
`CCNC1CCC(c2cn(C)c3ccc(C#N)cc23)C1` (centres unmarked) [Compound 18, 3-(3-Ethylamino-cyclopentyl)-1-methyl-1H-indole-5-carbonitrile]: the inhibition constant Ki in experiment [1] is greater than 1000 nM; in experiment [2] it was less than 1 nM.
Regarding `CCN(C)C1CCC(c2c[nH]c3ccc(C#N)cc23)C1` (centres unmarked) [Compound 4, 3-[3-(Ethyl-methyl-amino)-cyclopentyl]-1H-indole-5-carbonitrile], the inhibitory constant (Ki) was greater than 1000 nM in experiment [1] and 1 to 10 nM in experiment [2] (setting [3]).
